In article PMC6028563, “Probing Substituents in the 1- and 3-Position: Tetrahydropyrazino-Annelated Water-Soluble Xanthine Derivatives as Multi-Target Drugs With Potent Adenosine Receptor Antagonistic Activity” (Frontiers in Chemistry, 2018):

How the values were obtained:
human A1 AR = target: T1, human A1 AR (Homo sapiens, UniProt P30542); experiment: Radioligand binding assay at human A1 AR vs. [^3H]CCPA; conditions: human (h); CHO cell membranes; n = 3
T1 construct: expressed in transfected cells; host or cells: CHO cells
T1 sequence (P30542 1-326): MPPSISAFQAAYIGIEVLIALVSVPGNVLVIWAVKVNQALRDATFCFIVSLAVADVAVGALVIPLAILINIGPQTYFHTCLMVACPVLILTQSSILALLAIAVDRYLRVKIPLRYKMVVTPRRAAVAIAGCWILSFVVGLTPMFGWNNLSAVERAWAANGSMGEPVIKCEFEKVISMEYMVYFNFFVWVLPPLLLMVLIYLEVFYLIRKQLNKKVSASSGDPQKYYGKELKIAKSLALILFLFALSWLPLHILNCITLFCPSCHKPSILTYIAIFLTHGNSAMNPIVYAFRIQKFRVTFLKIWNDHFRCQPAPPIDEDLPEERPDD
Method: (§1) Membrane preparations and radioligand binding assays at rat A1 (rat brain cortex) and rat A2A ARs (rat brain striatum) were performed as previously described (Ozola et al., [2003]; Alnouri et al., [2015]). For assays at human A1, A2A, A2B, and A3 ARs, CHO cell membranes expressing one of the human AR subtypes were used as previously reported (Klotz et al., [1998]; Alnouri et al., [2015]; De Filippo et al., [2016]).
(§2) The synthesized tetrahydropyrazino[2,1-f ]purinediones 13–20 were evaluated in radioligand binding assays for their affinity to A1 ARs of rat brain cortical membrane and to A2A ARs of rat brain striatal membrane preparations. Selected compounds were further investigated for their affinity to human A1 and A2A ARs recombinantly expressed in Chinese hamster ovary (CHO) cells. All compounds were additionally investigated for their affinity to human A2B and A3 ARs recombinantly expressed in CHO cells to determine their AR subtype selectivity. […] It is well known that all xanthine derivatives lacking a ribose moiety, including tricyclic compounds, can only block ARs, but never act as AR agonists; therefore, additional functional studies were not required. […] Potent MAO-B inhibitors were additionally investigated for inhibition of human MAO-A to assess their selectivity. Results are presented in Tables 1–6, and data of standard ligands are included for comparison.

rat A1 AR = target: T2, rat A1 AR (Rattus norvegicus, UniProt P25099); experiment: Radioligand binding assay at rat A1 AR (rat brain cortex) vs. [^3H]CCPA; conditions: rat (r); rat brain cortex; n = 3
T2 construct: A1 ARs of rat brain cortical membrane; from tissue; host or cells: rat brain cortex membranes
T2 sequence (P25099 1-326): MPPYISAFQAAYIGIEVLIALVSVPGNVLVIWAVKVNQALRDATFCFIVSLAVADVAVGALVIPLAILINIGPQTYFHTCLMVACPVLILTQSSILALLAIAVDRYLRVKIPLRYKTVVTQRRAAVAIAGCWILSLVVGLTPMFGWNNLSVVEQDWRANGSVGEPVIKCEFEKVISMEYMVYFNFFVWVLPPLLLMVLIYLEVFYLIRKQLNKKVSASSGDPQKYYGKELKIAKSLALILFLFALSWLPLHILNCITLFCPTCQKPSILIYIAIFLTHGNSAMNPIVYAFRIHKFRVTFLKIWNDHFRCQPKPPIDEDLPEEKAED
Method: as §1, §2

rat A2A AR = target: T3, rat A2A AR (Rattus norvegicus, UniProt P30543); experiment: Radioligand binding assay at rat A2A AR (rat brain striatum) vs. [^3H]MSX-2; conditions: rat (r); for Ki: rat brain striatum, n = 3, read-out: Ki ± SEM, A2A vs. [^3H]MSX-2
T3 construct: A2A ARs of rat brain striatal membrane preparations; from tissue; host or cells: rat brain striatum membranes
Method: as §1, §2

human A2B AR = target: T4, human A2B AR (Homo sapiens, UniProt P29275); experiment: Radioligand binding assay at human A2B AR vs. [^3H]PSB-603; conditions: for Ki: CHO cell membranes, n = 2 (n = 3 where marked a), read-out: Ki ± SEM, A2B vs. [^3H]PSB-603; for inhibition at 1 µM: at 1,000 nM, read-out: % inhibition of radioligand binding at indicated concentration, A2B vs. [^3H]PSB-603
T4 construct: expressed in transfected cells; host or cells: CHO cells
T4 sequence (P29275 1-332): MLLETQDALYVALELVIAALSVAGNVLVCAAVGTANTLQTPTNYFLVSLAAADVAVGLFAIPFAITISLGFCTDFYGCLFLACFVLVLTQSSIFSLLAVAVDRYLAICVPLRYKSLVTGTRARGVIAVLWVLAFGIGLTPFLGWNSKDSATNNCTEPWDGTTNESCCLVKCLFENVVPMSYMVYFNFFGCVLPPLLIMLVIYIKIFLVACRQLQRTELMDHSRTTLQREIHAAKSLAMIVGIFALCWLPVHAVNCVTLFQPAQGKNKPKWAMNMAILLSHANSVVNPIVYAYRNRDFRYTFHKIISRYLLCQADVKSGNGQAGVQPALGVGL
Method: as §1, §2

human A3 AR = target: T5, human A3 AR (Homo sapiens, UniProt P0DMS8); experiment: Radioligand binding assay at human A3 AR vs. [^3H]PSB-11; conditions: for Ki: CHO cell membranes, n = 2 (n = 3 where marked a), read-out: Ki ± SEM, A3 vs. [^3H]PSB-11; for inhibition at 10 µM: at 10,000 nM
T5 construct: expressed in transfected cells; host or cells: CHO cells
T5 sequence (P0DMS8 1-318): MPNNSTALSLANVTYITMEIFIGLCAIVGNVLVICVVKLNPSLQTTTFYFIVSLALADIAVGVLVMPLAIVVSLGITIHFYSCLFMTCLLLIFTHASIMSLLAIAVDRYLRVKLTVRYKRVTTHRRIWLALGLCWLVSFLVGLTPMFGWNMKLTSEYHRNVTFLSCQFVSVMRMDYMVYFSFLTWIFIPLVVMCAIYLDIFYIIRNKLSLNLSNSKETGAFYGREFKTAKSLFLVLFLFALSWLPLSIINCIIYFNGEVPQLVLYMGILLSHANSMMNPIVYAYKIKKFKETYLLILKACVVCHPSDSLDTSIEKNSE
Method: as §1, §2

recombinant human MAO-A = target: T6, recombinant human MAO-A (Homo sapiens, UniProt P21397); experiment: Monoamine oxidase assay (Amplex Red), MAO-A; format: biochemical; conditions: for inhibition at 10 µM: at 10,000 nM, read-out: % inhibition at indicated concentration, Human MAO-A; for IC50: n = 3, read-out: IC50 ± SEM, Human MAO-A
T6 construct: purchased Sigma-Aldrich M7316; host or cells: baculovirus-infected insect cells
T6 sequence (P21397 1-527): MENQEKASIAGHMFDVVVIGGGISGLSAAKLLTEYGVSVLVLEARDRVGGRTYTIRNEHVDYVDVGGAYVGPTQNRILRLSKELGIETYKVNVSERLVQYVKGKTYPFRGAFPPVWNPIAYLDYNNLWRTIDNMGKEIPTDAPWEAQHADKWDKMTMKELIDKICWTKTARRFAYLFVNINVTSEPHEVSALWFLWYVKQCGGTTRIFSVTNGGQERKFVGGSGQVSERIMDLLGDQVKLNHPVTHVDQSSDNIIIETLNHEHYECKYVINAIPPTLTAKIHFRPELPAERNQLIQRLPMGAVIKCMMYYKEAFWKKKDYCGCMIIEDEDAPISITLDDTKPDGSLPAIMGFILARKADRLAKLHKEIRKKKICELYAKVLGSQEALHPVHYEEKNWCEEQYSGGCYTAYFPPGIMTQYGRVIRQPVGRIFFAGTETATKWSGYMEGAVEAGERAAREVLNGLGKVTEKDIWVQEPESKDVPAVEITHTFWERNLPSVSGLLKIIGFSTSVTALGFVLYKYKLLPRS
Method: (§3) The determination of MAO-A and MAO-B inhibition was performed using commercially available recombinant human MAO-A and MAO-B enzymes expressed in baculovirus-infected insects sells (Sigma-Aldrich, M7316 and M7441) applying the commercially available Amplex® Red monoamine oxidase assay kit (Invitrogen A12214). The assays were performed as previously described. The determination of rat MAO-B inhibition was performed using mitochondrial-enriched fractions from male Sprague Dawley rat livers. […]

recombinant human MAO-B = target: T7, recombinant human MAO-B (Homo sapiens, UniProt P27338); experiment: Monoamine oxidase assay (Amplex Red), MAO-B; format: biochemical; conditions: for inhibition at 10 µM: at 10,000 nM (10 μM), read-out: % inhibition at indicated concentration, Human MAO-B; for IC50: n = 3, read-out: IC50 ± SEM, Human MAO-B
T7 construct: purchased Sigma-Aldrich M7441; host or cells: baculovirus-infected insect cells
T7 sequence (P27338 1-520): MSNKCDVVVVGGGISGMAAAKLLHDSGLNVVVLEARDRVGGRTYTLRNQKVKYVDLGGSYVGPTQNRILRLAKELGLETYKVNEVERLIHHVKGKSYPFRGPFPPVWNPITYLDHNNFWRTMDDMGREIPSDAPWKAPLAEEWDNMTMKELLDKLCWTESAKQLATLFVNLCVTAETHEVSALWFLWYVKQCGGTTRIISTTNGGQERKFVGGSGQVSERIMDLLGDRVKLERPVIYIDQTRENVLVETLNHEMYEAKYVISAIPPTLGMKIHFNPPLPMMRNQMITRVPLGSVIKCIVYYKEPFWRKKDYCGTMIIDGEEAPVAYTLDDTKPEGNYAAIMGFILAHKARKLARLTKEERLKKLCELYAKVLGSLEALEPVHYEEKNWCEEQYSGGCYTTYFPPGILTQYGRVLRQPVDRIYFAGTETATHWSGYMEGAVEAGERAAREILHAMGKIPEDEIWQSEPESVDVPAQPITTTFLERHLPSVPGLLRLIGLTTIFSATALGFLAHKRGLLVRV
Method: as §3

human A2A AR = target: T8, human A2A AR (Homo sapiens, UniProt P29274); experiment: Radioligand binding assay at human A2A AR vs. [^3H]MSX-2; conditions: CHO cell membranes, n = 3, read-out: Ki ± SEM, A2A vs. [^3H]MSX-2
T8 construct: expressed in transfected cells; host or cells: CHO cells
Method: as §1, §2

[1] = read-out: % inhibition of radioligand binding at indicated concentration, A3 vs. [^3H]PSB-11

T8 sequence (P29274 whole entry): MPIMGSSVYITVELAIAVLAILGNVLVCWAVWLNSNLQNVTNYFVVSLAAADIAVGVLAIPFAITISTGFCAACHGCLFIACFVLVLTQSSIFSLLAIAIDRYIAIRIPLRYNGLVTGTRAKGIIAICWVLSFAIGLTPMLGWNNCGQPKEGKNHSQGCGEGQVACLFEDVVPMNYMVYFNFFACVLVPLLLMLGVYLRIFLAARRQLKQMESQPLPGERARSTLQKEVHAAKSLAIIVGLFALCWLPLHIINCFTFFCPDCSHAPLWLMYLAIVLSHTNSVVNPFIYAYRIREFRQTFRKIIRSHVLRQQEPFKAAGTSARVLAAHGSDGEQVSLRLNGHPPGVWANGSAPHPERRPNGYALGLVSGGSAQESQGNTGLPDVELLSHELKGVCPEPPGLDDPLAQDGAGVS
T3 sequence (P30543 whole entry): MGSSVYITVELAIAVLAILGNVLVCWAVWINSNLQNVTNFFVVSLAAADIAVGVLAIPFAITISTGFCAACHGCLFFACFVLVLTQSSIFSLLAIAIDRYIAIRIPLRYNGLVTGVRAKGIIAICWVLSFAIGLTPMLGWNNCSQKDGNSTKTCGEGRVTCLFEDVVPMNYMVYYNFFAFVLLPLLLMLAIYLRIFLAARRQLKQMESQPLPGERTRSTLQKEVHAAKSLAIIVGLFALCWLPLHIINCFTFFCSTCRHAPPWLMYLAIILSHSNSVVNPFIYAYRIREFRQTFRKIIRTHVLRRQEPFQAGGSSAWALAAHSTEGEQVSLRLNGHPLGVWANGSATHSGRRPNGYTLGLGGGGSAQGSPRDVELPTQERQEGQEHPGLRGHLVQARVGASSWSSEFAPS

SMILES | Ki (human A1 AR) [µM] | Ki (rat A1 AR) [µM] | % inhibition of radioligand binding at indicated concentration, A2A vs. [^3H]MSX-2 (rat A2A AR; at 1,000 nM) [%] | Ki (rat A2A AR) [µM] | Ki (human A2B AR) [µM] | inhibition at 1 µM (human A2B AR) [%] | Ki (human A3 AR) [µM] | inhibition at 10 µM (recombinant human MAO-A) [%] | inhibition at 10 µM (recombinant human MAO-B) [%] | Ki (human A2A AR) [µM] | IC50 (recombinant human MAO-B) [µM] | inhibition at 10 µM (human A3 AR; [1]) [%] | IC50 (recombinant human MAO-A) [µM] | inhibition at 1 µM (human A3 AR; at 1,000 nM, read-out: % inhibition of radioligand binding at indicated concentration, A3 vs. [^3H]PSB-11) [%]
CCn1c(=O)c2c(nc3n2CCN(Cc2ccc(Cl)c(C(F)(F)F)c2)C3)n(CC)c1=O [Compound 15p, 8-(4-chloro-3-(trifluoromethyl)benzyl)-1,3-diethyl-6,7,8,9-tetrahydropyrazino[2,1-f]purine-2,4(1H,3H)-dione] | 0.129 ± 0.022 | 0.588 ± 0.028 | 40 | > 1 | > 1 | 32 | 7.18 | 6 | 67 | – | – | – | – | –
C#CCn1c(=O)c2c(nc3n2CCN(Cc2ccccc2OC)C3)n(CC)c1=O [Compound 20f, 1-ethyl-8-(2-methoxybenzyl)-3-propargyl-6,7,8,9-tetrahydropyrazino[2,1-f]purine-2,4(1H,3H)-dione] | 0.21 ± 0.09 | 0.0327 ± 0.0058 | – | 1.2 | > 1 | 18 | 7.64 | – | 27 | 0.311 ± 0.106 | > 10 | – | – | –
C#CCn1c(=O)c2c(nc3n2CCN(CCc2ccccc2)C3)n(CC)c1=O [Compound 20h, 1-ethyl-8-phenethyl-3-propargyl-6,7,8,9-tetrahydropyrazino[2,1-f]purine-2,4(1h,3h)-dione] | 2.44 | 0.117 ± 0.002 | – | 1.7 | > 1 | 16 | > 10 | – | 27 | 0.149 ± 0.028 | > 10 | 36 | – | –
CCn1c(=O)c2c(nc3n2CCN(Cc2cc(F)cc(Cl)c2)C3)n(C)c1=O [Compound 14n, 8-(3-chloro-5-fluorobenzyl)-3-ethyl-1-methyl-6,7,8,9-tetrahydropyrazino[2,1-f]purine-2,4(1H,3H)-dione] | 0.298 ± 0.052 | 0.0362 ± 0.0099 | – | 0.981 ± 0.116 | > 1 | 1 | 15.6 | 19 | – | – | 3.74 | – | > 10 | –
C#CCn1c(=O)c2c(nc3n2CCN(Cc2cccc(OC)c2)C3)n(CC)c1=O [Compound 20g, 1-ethyl-8-(3-methoxybenzyl)-3-propargyl-6,7,8,9-tetrahydropyrazino[2,1-f]purine-2,4(1H,3H)-dione] | 0.124 ± 0.09 | 0.118 ± 0.022 | – | 0.769 ± 0.077 | > 1 | 22 | > 10 | – | 41 | 0.542 ± 0.169 | > 10 | 40 | – | –
CCn1c(=O)c2c(nc3n2CCN(Cc2ccc(Br)cc2)C3)n(CC)c1=O [Compound 15e, 8-(4-bromobenzyl)-1,3-diethyl-6,7,8,9-tetrahydropyrazino[2,1-f]purine-2,4(1H,3H)-dione] | – | 0.054 ± 0.0091 | – | 1.14 | > 1 | 39 | > 1 | 25 | – | 4.42 | 6.51 | – | > 10 | 12
CCn1c(=O)c2c(nc3n2CCN(Cc2ccccc2F)C3)n(CC)c1=O [Compound 15a, 1,3-diethyl-8-(2-fluorobenzyl)-6,7,8,9-tetrahydropyrazino[2,1-f]purine-2,4(1H,3H)-dione] | 0.156 ± 0.005 | 0.032 ± 0.0009 | – | 2 | > 1 | 12 | 7.82 | – | 22 | – | > 10 | – | – | –
